The results in this text go back to US11261186B2, “Biaryl derivative as GPR120 agonist” (LG CHEM, LTD., priority 2014, dated 2022).

For this experiment, the target named is T1, hGPR120 (Homo sapiens, UniProt Q5NUL3).
T1 construct: expressed in transfected cells; host or cells: CHO-K1
T1 sequence (Q5NUL3 1-361): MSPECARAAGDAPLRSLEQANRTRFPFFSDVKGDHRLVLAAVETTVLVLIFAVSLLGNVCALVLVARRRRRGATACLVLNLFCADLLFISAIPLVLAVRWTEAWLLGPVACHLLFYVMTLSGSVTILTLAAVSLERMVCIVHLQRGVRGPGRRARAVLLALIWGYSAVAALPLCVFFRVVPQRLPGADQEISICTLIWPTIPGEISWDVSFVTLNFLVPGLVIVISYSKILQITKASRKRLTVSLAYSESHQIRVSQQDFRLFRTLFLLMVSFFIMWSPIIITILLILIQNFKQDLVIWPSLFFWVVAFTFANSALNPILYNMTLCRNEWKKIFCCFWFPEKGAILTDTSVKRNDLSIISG
As to the kind of experiment: Measurement of Activity of GPR120 Agonist (Cell-Based Assay), Calcium 5 dye fluorescence. To be noted: CHO-K1 cells expressing Ga16 and hGPR120. A digest of the protocol: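 CHO-K1 cells co-expressing Gα16 and hGPR120 were seeded, cultured 18 h at 37 °C, then loaded 1 h with Calcium 5 dye. Serially diluted agonists (final 0.5% DMSO) were added and fluorescence read at Ex 485/Em 525 nm, expressed as percent relative to 1% DMSO-only wells.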

One may read the EC50 as the concentration giving half of the maximal effect. On to `COCCCOc1cc(C)nc(-c2cc(F)c(N3CCC(CC(=O)O)CC3)c(F)c2)n1` [Example 601, (1-{2,6-difluoro-4-[4-(3-methoxy-propoxy)-6-methyl-pyrimidin-2-yl]-phenyl}-piperidin-4-yl)-acetic acid], for which the EC50 lay within 200 to 2000 nM.

Regarding `COCCOc1cc(C)nc(-c2cc(F)c(N3CCC(CC(=O)O)CC3)c(F)c2)n1` [Example 602, (1-{2,6-difluoro-4-[4-(2-methoxy-ethoxy)-6-methyl-pyrimidin-2-yl]-phenyl}-piperidin-4-yl)-acetic acid], the concentration giving a half-maximal response (EC50) lay in the range of 200 to 2000 nM.

In the case of `O=C(O)C[C@@H]1CCN(c2c(F)cc(-c3cccc(OCC4CC4)n3)cc2F)C1` [Example 604, {(S)-1-[4-(6-cyclopropylmethoxy-pyridin-2-yll)-2,6-difluoro-phenyl]-pyrrolidin-3-yl}-acetic acid], the concentration for a half-maximal effect (EC50) was under 200 nM.

Regarding `CCc1ccc(Oc2ccnc(-c3cc(F)c(N4CCC(CC(=O)O)CC4)c(F)c3)n2)cc1` [Example 606, 2-[1-[2,6-difluoro-4-[6-(4-ethylphenoxy)pyrimidin-2-yl]phenyl]-4-piperidyl]acetic acid], the concentration for a half-maximal effect (EC50) was 200 to 2000 nM.

`O=C(O)CC1CCN(c2c(F)cc(-c3nccc(Oc4cccc(F)c4)n3)cc2F)CC1` [Example 607, 2-[1-[4-[4-(3-fluorophenoxy)pyrimidin-2-yl]-2,6-difluoro-phenyl]-4-piperidyl]acetic acid]: the concentration for a half-maximal effect (EC50) was under 200 nM.

Regarding `Cc1cc(Oc2ccc(F)c(F)c2)nc(-c2cc(F)c(N3CCC(CC(=O)O)CC3)c(F)c2)n1` [Example 608, 2-[1-[2,6-difluoro-4-[4-(3,4-fluorophenoxy)-6-methyl-pyrimidin-2-yl]phenyl]-4-piperidyl]acetic acid], the concentration for a half-maximal effect (EC50) lay in the range of 200 to 2000 nM.

In the case of `O=C(O)CC1CCN(c2c(F)cc(-c3nccc(Oc4ccccn4)n3)cc2F)CC1` [Example 609, 2-[1-[2,6-difluoro-4-[4-(2-pyridyloxy)pyrimidin-2-yl]phenyl]-4-piperidyl]acetic acid], the 50% effective concentration (EC50) was in the range of 200 to 2000 nM.

As for `O=C(O)CC1CCN(c2c(F)cc(-c3nccc(Oc4ccc(C(F)(F)F)cc4)n3)cc2F)CC1` [Example 610, 2-[1-[2,6-difluoro-4-[4-[4-(trifluoromethyl)phenoxy]pyrimidin-2-yl]phenyl]-4-piperidyl]acetic acid], the concentration for a half-maximal effect (EC50) lay in the range of 200 to 2000 nM.

Take `O=C(O)CC1CCN(c2c(F)cc(-c3nccc(Oc4cccc(C(F)(F)F)c4)n3)cc2F)CC1` [Example 611, 2-[1-[2,6-difluoro-4-[4-[3-(trifluoromethyl)phenoxy]pyrimidin-2-yl]phenyl]-4-piperidyl]acetic acid]: the EC50 was 200 to 2000 nM.

Regarding `Cc1cc(Oc2ccc(C(F)(F)F)cc2)nc(-c2cc(F)c(N3CCC(CC(=O)O)CC3)c(F)c2)n1` [Example 612, 2-[1-[2,6-difluoro-4-[4-methyl-6-[4-(trifluoromethyl)phenoxy]pyrimidin-2-yl]phenyl]-4-piperidyl]acetic acid], the EC50 is 2000 to 20000 nM.

On to `Cc1cc(Oc2cccc(C(F)(F)F)c2)nc(-c2cc(F)c(N3CCC(CC(=O)O)CC3)c(F)c2)n1` [Example 613, 2-[1-[2,6-difluoro-4-[4-methyl-6-[3-(trifluoromethyl)phenoxy]pyrimidin-2-yl]phenyl]-4-piperidyl]acetic acid], for which the EC50 lay within 2000 to 20000 nM.

As to `O=C(O)CC1CCN(c2c(F)cc(-c3cc(C(F)(F)F)cc(OC4CCC4)n3)cc2F)CC1` [Example 614, {1-[4-(6-cyclobutoxy-4-trifluoromethyl-pyridin-2-yl)-2,6-difluoro-phenyl]-piperidin-4-yl}-acetic acid], the EC50 lay in the range of 2000 to 20000 nM.

For `O=C(O)CC1CCN(c2c(F)cc(-c3cccc4sc(-c5ccc(F)cc5)cc34)cc2F)CC1` [Example 615, (1-{2,6-difluoro-4-[2-(4-fluoro-phenyl)-benzo[b]thiophen-4-yl]-phenyl}-piperidin-4-yl)-acetic acid], the EC50 lay within 2000 to 20000 nM.

Turning to `Cc1cccc(-c2cc3c(-c4cc(F)c(N5CCC(CC(=O)O)CC5)c(F)c4)cccc3s2)c1` [Example 616, {1-[2,6-difluoro-4-(2-m-tolyl-benzo[b]thiophen-4-yl)-phenyl]-piperidin-4-yl}-acetic acid], the concentration for a half-maximal effect (EC50) lay in the range of 200 to 2000 nM.

As to `O=C(O)CC1CCN(c2c(F)cc(-c3nc(OC4CCC4)cc(C(F)(F)F)n3)cc2F)CC1` [Example 617, {1-[4-(4-cyclobutoxy-6-trifluoromethyl-pyrimidin-2-yl)-2,6-difluoro-phenyl]-piperidin-4-yl}-acetic acid], the EC50 is over 20000 nM.

With `CCCOc1cc(C(F)(F)F)nc(-c2cc(F)c(N3CCC(CC(=O)O)CC3)c(F)c2)n1` [Example 618, {1-[2,6-difluoro-4-(4-propoxy-6-trifluoromethyl-pyrimidin-2-yl)-phenyl]-piperidin-4-yl}-acetic acid], the concentration for a half-maximal effect (EC50) was 2000 to 20000 nM.

Turning to `O=C(O)CC1CCN(c2c(F)cc(-c3nc(Oc4ccc(F)cc4)cc(C(F)(F)F)n3)cc2F)CC1` [Example 619, (1-{2,6-difluoro-4-[4-(4-fluoro-phenoxy)-6-trifluoromethyl-pyrimidin-2-yl]-phenyl}-piperidin-4-yl)-acetic acid], the EC50 lay in the range of 2000 to 20000 nM.

Take `CCCOc1cccc(-c2cc(F)c(N3CCC(CCC(=O)O)CC3)c(F)c2)n1` [Example 620, 3-{1-[2,6-difluoro-4-(6-propoxy-pyridin-2-yl)-phenyl]-piperidin-4-yl}-propionic acid]: the concentration giving a half-maximal response (EC50) was in the range of 200 to 2000 nM.

Consider `O=C(O)CCC1CCN(c2c(F)cc(-c3cccc(C4CCC4)n3)cc2F)CC1` [Example 621, 3-{1-[4-(6-cyclobutyl-pyridin-2-yl)-2,6-difluoro-phenyl]-piperidin-4-yl}-propionic acid], for which the EC50 is 200 to 2000 nM.

For `CCOc1cccc(-c2cc(F)c(N3CCC(CCC(=O)O)CC3)c(F)c2)n1` [Example 622, 3-{1-[4-(6-ethoxy-pyridin-2-yl)-2,6-difluoro-phenyl]-piperidin-4-yl}-propionic acid], the concentration giving a half-maximal response (EC50) was in the range of 200 to 2000 nM.
